Values of other authors as cited in patent publication US20050255155A1, “Modified release cilostazol compositions” (Glenmark Pharmaceuticals Limited, priority 2004, published 2005).

Settings: BCS characterisation

In the case of O=C1CCc2cc(OCCCCc3nnnn3C3CCCCC3)ccc2N1 [cilostazol, 6-[4-(1-cyclohexyl-1H-tertazole-5-yl)butoxy]-3,4-dihydro-2 (1H)-quinolinone], the solubility is given as “low solubility”.
